Assay results from US20180000085A1, “USE OF PICOLINAMIDE COMPOUNDS WITH FUNGICIDAL ACTIVITY” (DOW AGROSCIENCES LLC, priority 2014, published 2018).

What was measured:
Zymoseptoria tritici = experiment: Leaf blotch of wheat (SEPTTR) disease control on wheat seedlings; format: in vivo; parameters: key to SEPTTR 1DP, HV activity at 100 ppm (% control rating) / SEPTTR 3DC, HV activity at 100 ppm (% control rating) / SEPTTR disease control, 1DP / SEPTTR disease control, 3DC / SEPTTR 1DP disease control rating, HV activity / SEPTTR 3DC disease control rating, HV activity / SEPTTR 3DC, LV activity at 125.1 g/H (% Control rating) / SEPTTR 1DP, LV activity at 125.1 g/H (% Control rating) / SEPTTR 1DP disease control rating, LV activity at 125.1 g/H / SEPTTR 3DC disease control rating, LV activity at 125.1 g/H / SEPTTR 3DC disease control rating, HV activity at 100 ppm / SEPTTR 1DP disease control rating, HV activity at 100 ppm / HV activity at 100 ppm SEPTTR 3DC (disease control rating) / HV activity at 100 ppm SEPTTR 1DP (disease control rating) / LV activity at 125.1 g/H SEPTTR 1DP (disease control rating) / LV activity at 125.1 g/H SEPTTR 3DC (disease control rating): A: > 80; B: ≤ 80; C: Not Tested; D: No Activity Observed in the Reported Assay; conditions: for SEPTTR 1DP disease control rating, HV activity at 100 ppm / SEPTTR 3DC disease control rating, HV activity at 100 ppm: high volume application; for SEPTTR 1DP disease control rating, HV activity at 100 ppm / SEPTTR 1DP disease control rating, LV activity at 125.1 g/H: 1 day protectant; for SEPTTR 3DC disease control rating, HV activity at 100 ppm / SEPTTR 3DC disease control rating, LV activity at 125.1 g/H: 3 day curative; for SEPTTR 1DP disease control rating, HV activity / SEPTTR 3DC disease control rating, HV activity: HV application at 100 ppm, wheat leaf blotch
Puccinia triticina = experiment: Wheat brown rust (PUCCRT) disease control on wheat seedlings; format: in vivo; parameters: key to PUCCRT 3DC, HV activity at 100 ppm (% control rating) / PUCCRT disease control, 3DC / PUCCRT 1DP disease control rating, HV activity / PUCCRT 3DC disease control rating, HV activity / PUCCRT 3DC, LV activity at 125.1 g/H (% Control rating) / PUCCRT 1DP, LV activity at 125.1 g/H (% Control rating) / PUCCRT 3DC disease control rating, LV activity at 125.1 g/H / PUCCRT 1DP disease control rating, LV activity at 125.1 g/H / PUCCRT 3DC disease control rating, HV activity at 100 ppm / PUCCRT 1DP disease control rating, HV activity at 100 ppm / HV activity at 100 ppm PUCCRT 3DC (disease control rating) / LV activity at 125.1 g/H PUCCRT 1DP (disease control rating) / LV activity at 125.1 g/H PUCCRT 3DC (disease control rating): A: > 80; B: ≤ 80; C: Not Tested; D: No Activity Observed in the Reported Assay; conditions: for PUCCRT 1DP disease control rating, HV activity at 100 ppm / PUCCRT 3DC disease control rating, HV activity at 100 ppm: high volume application; for PUCCRT 1DP disease control rating, HV activity at 100 ppm / PUCCRT 1DP disease control rating, LV activity at 125.1 g/H: 1 day protectant; for PUCCRT 3DC disease control rating, HV activity at 100 ppm / PUCCRT 3DC disease control rating, LV activity at 125.1 g/H: 3 day curative; for PUCCRT 1DP disease control rating, HV activity / PUCCRT 3DC disease control rating, HV activity: HV application at 100 ppm, wheat brown rust
[1] = low volume application, 125.1 g/H, 1 Day Protectant
[2] = low volume application, 125.1 g/H, 3 Day Curative
[3] = low volume application, 125.1 g/H

Structure (SMILES): COc1ccnc(C(=O)NC(C)C(=O)OC(C)(C)[C@H](Oc2ccccc2)C(C)C)c1O (stereo partly drawn) [Cmpd 835, (R)-2,4-dimethyl-3-phenoxypentan-2-yl 2-(3-hydroxy-4-methoxypicolinamido)propanoate]
- SEPTTR 1DP disease control rating, HV activity at 100 ppm (Zymoseptoria tritici): D
- SEPTTR 3DC disease control rating, HV activity at 100 ppm (Zymoseptoria tritici): B (≤ 80)
- PUCCRT 1DP disease control rating, HV activity at 100 ppm (Puccinia triticina): A (> 80)
- PUCCRT 3DC disease control rating, HV activity at 100 ppm (Puccinia triticina): A (> 80)

Structure (SMILES): COCC[C@@H](OCc1ccccc1)[C@H](C)OC(=O)[C@H](C)NC(=O)c1nccc(OC)c1OCOC(C)=O [Cmpd 526]
- SEPTTR 1DP, LV activity at 125.1 g/H (% Control rating) (Zymoseptoria tritici; [1]): B (≤ 80)
- SEPTTR 3DC, LV activity at 125.1 g/H (% Control rating) (Zymoseptoria tritici; [2]): B (≤ 80)
- PUCCRT 1DP, LV activity at 125.1 g/H (% Control rating) (Puccinia triticina; [1]): D
- PUCCRT 3DC, LV activity at 125.1 g/H (% Control rating) (Puccinia triticina; [2]): B (≤ 80)

Structure (SMILES): CC[C@H](NC(=O)c1nccc(OC)c1O)C(=O)O[C@@H](C)[C@@H](COc1ccccc1)Oc1ccccc1 [Cmpd 316]
- SEPTTR 1DP disease control rating, HV activity (Zymoseptoria tritici; 1 Day Protectant): B (≤ 80)
- SEPTTR 3DC disease control rating, HV activity (Zymoseptoria tritici; 3 Day Curative): B (≤ 80)
- PUCCRT 1DP disease control rating, HV activity (Puccinia triticina; 1 Day Protectant): A (> 80)
- PUCCRT 3DC disease control rating, HV activity (Puccinia triticina; 3 Day Curative): A (> 80)

Structure (SMILES): COc1ccnc(C(=O)N[C@@H](C)C(=O)O[C@@H](C)[C@H](OCC2CC2)C2CC2)c1O [Cmpd 1002]
- SEPTTR 1DP disease control rating, HV activity at 100 ppm (Zymoseptoria tritici): B (≤ 80)
- SEPTTR 3DC disease control rating, HV activity at 100 ppm (Zymoseptoria tritici): B (≤ 80)
- PUCCRT 1DP disease control rating, HV activity at 100 ppm (Puccinia triticina): A (> 80)
- PUCCRT 3DC disease control rating, HV activity at 100 ppm (Puccinia triticina): A (> 80)

Structure (SMILES): COc1ccnc(C(=O)NC(C)C(=O)OC(C)C(Oc2ccc(Cl)cc2Cl)c2ccccc2)c1OC(=O)C(C)C (stereo not drawn) [Cmpd 868]
- SEPTTR 1DP disease control rating, LV activity at 125.1 g/H (Zymoseptoria tritici; [3]): B (≤ 80)
- SEPTTR 3DC disease control rating, LV activity at 125.1 g/H (Zymoseptoria tritici; [3]): B (≤ 80)
- PUCCRT 1DP disease control rating, LV activity at 125.1 g/H (Puccinia triticina; [3]): B (≤ 80)
- PUCCRT 3DC disease control rating, LV activity at 125.1 g/H (Puccinia triticina; [3]): B (≤ 80)

Structure (SMILES): COc1ccnc(C(=O)NC(C)C(=O)OC(C)C(Oc2cccc(Cl)c2)C(C)C)c1OC(C)=O (stereo not drawn) [Cmpd 857]
- SEPTTR 1DP disease control rating, LV activity at 125.1 g/H (Zymoseptoria tritici; [3]): B (≤ 80)
- SEPTTR 3DC disease control rating, LV activity at 125.1 g/H (Zymoseptoria tritici; [3]): B (≤ 80)
- PUCCRT 1DP disease control rating, LV activity at 125.1 g/H (Puccinia triticina; [3]): A (> 80)
- PUCCRT 3DC disease control rating, LV activity at 125.1 g/H (Puccinia triticina; [3]): A (> 80)

Structure (SMILES): COc1ccnc(C(=O)NC(C)C(=O)OC(C)C(Oc2ccccc2)c2nccs2)c1O (mixture of isomers) [Cmpd 808]
- SEPTTR 1DP disease control rating, HV activity at 100 ppm (Zymoseptoria tritici): B (≤ 80)
- SEPTTR 3DC disease control rating, HV activity at 100 ppm (Zymoseptoria tritici): D
- PUCCRT 1DP disease control rating, HV activity at 100 ppm (Puccinia triticina): A (> 80)
- PUCCRT 3DC disease control rating, HV activity at 100 ppm (Puccinia triticina): B (≤ 80)

Structure (SMILES): COc1ccnc(C(=O)N[C@H](C(=O)O[C@@H](C)[C@H](Oc2ccccc2)C(C)C)C(C)C)c1O [Cmpd 811]
- SEPTTR 1DP disease control rating, HV activity at 100 ppm (Zymoseptoria tritici): B (≤ 80)
- SEPTTR 3DC disease control rating, HV activity at 100 ppm (Zymoseptoria tritici): B (≤ 80)
- PUCCRT 1DP disease control rating, HV activity at 100 ppm (Puccinia triticina): A (> 80)
- PUCCRT 3DC disease control rating, HV activity at 100 ppm (Puccinia triticina): A (> 80)

Structure (SMILES): COc1ccnc(C(=O)N[C@@H](C)C(=O)O[C@@H](C)[C@H](Oc2cccc(Cl)c2)C(C)C)c1O [Cmpd 357]
- SEPTTR 1DP disease control rating, HV activity (Zymoseptoria tritici; 1 Day Protectant): A (> 80)
- SEPTTR 3DC disease control rating, HV activity (Zymoseptoria tritici; 3 Day Curative): A (> 80)
- PUCCRT 1DP disease control rating, HV activity (Puccinia triticina; 1 Day Protectant): A (> 80)
- PUCCRT 3DC disease control rating, HV activity (Puccinia triticina; 3 Day Curative): A (> 80)
